Assay results reported in ChEMBL document CHEMBL1147101, “Development and persistence of antimicrobial resistance in Pseudomonas aeruginosa: a longitudinal observation in mechanically ventilated patients” (Antimicrob Agents Chemother, 2007).
Calls of active or inactive are those of the source. No cut-off for these calls is given here.

Legend:
Format in all cases: functional, organism-based
Details in all cases: Trachea
Pseudomonas aeruginosa [1] = assay: Antimicrobial activity against Pseudomonas aeruginosa 1A9 tracheal isolates from mechanically ventilated tuberculosis patient
Pseudomonas aeruginosa [2] = assay: Antimicrobial activity against Pseudomonas aeruginosa 1B9 tracheal isolates from mechanically ventilated tuberculosis patient
Pseudomonas aeruginosa [3] = assay: Antimicrobial activity against Pseudomonas aeruginosa 13E1 tracheal isolates from mechanically ventilated chronic respiratory insufficiency patient
Pseudomonas aeruginosa [4] = assay: Antimicrobial activity against Pseudomonas aeruginosa 15G2 tracheal isolates from mechanically ventilated chronic respiratory insufficiency patient
Pseudomonas aeruginosa [5] = assay: Antimicrobial activity against Pseudomonas aeruginosa 2C1 tracheal isolates from mechanically ventilated tuberculosis patient
Pseudomonas aeruginosa [6] = assay: Antimicrobial activity against Pseudomonas aeruginosa 2A5 tracheal isolates from mechanically ventilated tuberculosis patient
Pseudomonas aeruginosa [7] = assay: Antimicrobial activity against Pseudomonas aeruginosa 2A6 tracheal isolates from mechanically ventilated tuberculosis patient
Pseudomonas aeruginosa [8] = assay: Antimicrobial activity against Pseudomonas aeruginosa 2F6 tracheal isolates from mechanically ventilated tuberculosis patient
Pseudomonas aeruginosa [9] = assay: Antimicrobial activity against Pseudomonas aeruginosa 2A7 tracheal isolates from mechanically ventilated tuberculosis patient
Pseudomonas aeruginosa [10] = assay: Antimicrobial activity against Pseudomonas aeruginosa 2A9 tracheal isolates from mechanically ventilated tuberculosis patient
Pseudomonas aeruginosa [11] = assay: Antimicrobial activity against Pseudomonas aeruginosa 65.68-2 tracheal isolates from mechanically ventilated tuberculosis patient
Pseudomonas aeruginosa [12] = assay: Antimicrobial activity against Pseudomonas aeruginosa 65.68-3 tracheal isolates from mechanically ventilated tuberculosis patient
Pseudomonas aeruginosa [13] = assay: Antimicrobial activity against Pseudomonas aeruginosa 65.68-4 tracheal isolates from mechanically ventilated tuberculosis patient
Pseudomonas aeruginosa [14] = assay: Antimicrobial activity against Pseudomonas aeruginosa 16D5 tracheal isolates from mechanically ventilated chronic respiratory insufficiency patient
Pseudomonas aeruginosa [15] = assay: Antimicrobial activity against Pseudomonas aeruginosa 19B3 tracheal isolates from mechanically ventilated chronic respiratory insufficiency patient
Pseudomonas aeruginosa [16] = assay: Antimicrobial activity against Pseudomonas aeruginosa 19B6 tracheal isolates from mechanically ventilated chronic respiratory insufficiency patient
Pseudomonas aeruginosa [17] = assay: Antimicrobial activity against Pseudomonas aeruginosa 19C7 tracheal isolates from mechanically ventilated chronic respiratory insufficiency patient
Pseudomonas aeruginosa [18] = assay: Antimicrobial activity against Pseudomonas aeruginosa 3D1 tracheal isolates from mechanically ventilated chronic respiratory insufficiency patient
Pseudomonas aeruginosa [19] = assay: Antimicrobial activity against Pseudomonas aeruginosa 3E2 tracheal isolates from mechanically ventilated chronic respiratory insufficiency patient
Pseudomonas aeruginosa [20] = assay: Antimicrobial activity against Pseudomonas aeruginosa 5F2 tracheal isolates from mechanically ventilated chronic respiratory insufficiency patient
Pseudomonas aeruginosa [21] = assay: Antimicrobial activity against Pseudomonas aeruginosa 5F8 tracheal isolates from mechanically ventilated chronic respiratory insufficiency patient
Pseudomonas aeruginosa [22] = assay: Antimicrobial activity against Pseudomonas aeruginosa 5G3 tracheal isolates from mechanically ventilated chronic respiratory insufficiency patient
Pseudomonas aeruginosa [23] = assay: Antimicrobial activity against Pseudomonas aeruginosa 8A12 tracheal isolates from mechanically ventilated chronic respiratory insufficiency patient
Pseudomonas aeruginosa [24] = assay: Antimicrobial activity against Pseudomonas aeruginosa 8C4 tracheal isolates from mechanically ventilated chronic respiratory insufficiency patient
Pseudomonas aeruginosa [25] = assay: Antimicrobial activity against Pseudomonas aeruginosa 8B11 tracheal isolates from mechanically ventilated chronic respiratory insufficiency patient
Pseudomonas aeruginosa [26] = assay: Antimicrobial activity against Pseudomonas aeruginosa 9A1 tracheal isolates from mechanically ventilated chronic respiratory insufficiency patient
Pseudomonas aeruginosa [27] = assay: Antimicrobial activity against Pseudomonas aeruginosa 9A7 tracheal isolates from mechanically ventilated chronic respiratory insufficiency patient
Pseudomonas aeruginosa [28] = assay: Antimicrobial activity against Pseudomonas aeruginosa 9A10 tracheal isolates from mechanically ventilated chronic respiratory insufficiency patient
Pseudomonas aeruginosa [29] = assay: Antimicrobial activity against Pseudomonas aeruginosa 9B5 tracheal isolates from mechanically ventilated chronic respiratory insufficiency patient
Pseudomonas aeruginosa [30] = assay: Antimicrobial activity against Pseudomonas aeruginosa 10A6 tracheal isolates from mechanically ventilated chronic respiratory insufficiency patient
Pseudomonas aeruginosa [31] = assay: Antimicrobial activity against Pseudomonas aeruginosa 10A9 tracheal isolates from mechanically ventilated chronic respiratory insufficiency patient
Pseudomonas aeruginosa [32] = assay: Antimicrobial activity against Pseudomonas aeruginosa 10B1 tracheal isolates from mechanically ventilated chronic respiratory insufficiency patient
Pseudomonas aeruginosa [33] = assay: Antimicrobial activity against Pseudomonas aeruginosa 10B3 tracheal isolates from mechanically ventilated chronic respiratory insufficiency patient
Pseudomonas aeruginosa [34] = assay: Antimicrobial activity against Pseudomonas aeruginosa 24G1 tracheal isolates from mechanically ventilated chronic respiratory insufficiency patient
Pseudomonas aeruginosa [35] = assay: Antimicrobial activity against Pseudomonas aeruginosa 29F6 tracheal isolates from mechanically ventilated chronic respiratory insufficiency patient
Pseudomonas aeruginosa [36] = assay: Antimicrobial activity against Pseudomonas aeruginosa 29G6 tracheal isolates from mechanically ventilated chronic respiratory insufficiency patient
Pseudomonas aeruginosa [37] = assay: Antimicrobial activity against Pseudomonas aeruginosa 29G7 tracheal isolates from mechanically ventilated chronic respiratory insufficiency patient
Pseudomonas aeruginosa [38] = assay: Antimicrobial activity against Pseudomonas aeruginosa 29G8 tracheal isolates from mechanically ventilated chronic respiratory insufficiency patient
Pseudomonas aeruginosa [39] = assay: Antimicrobial activity against Pseudomonas aeruginosa 19E2 tracheal isolates from mechanically ventilated chronic respiratory insufficiency patient
Pseudomonas aeruginosa [40] = assay: Antimicrobial activity against Pseudomonas aeruginosa 22D9 tracheal isolates from mechanically ventilated chronic respiratory insufficiency patient
Pseudomonas aeruginosa [41] = assay: Antimicrobial activity against Pseudomonas aeruginosa 22E1 tracheal isolates from mechanically ventilated chronic respiratory insufficiency patient
Pseudomonas aeruginosa [42] = assay: Antimicrobial activity against Pseudomonas aeruginosa 22E3 tracheal isolates from mechanically ventilated chronic respiratory insufficiency patient
Pseudomonas aeruginosa [43] = assay: Antimicrobial activity against Pseudomonas aeruginosa 65.33-2 tracheal isolates from mechanically ventilated tuberculosis patient
Pseudomonas aeruginosa [44] = assay: Antimicrobial activity against Pseudomonas aeruginosa 65.33-4 tracheal isolates from mechanically ventilated tuberculosis patient
Pseudomonas aeruginosa [45] = assay: Antimicrobial activity against Pseudomonas aeruginosa 65.36-2 tracheal isolates from mechanically ventilated tuberculosis patient
Pseudomonas aeruginosa [46] = assay: Antimicrobial activity against Pseudomonas aeruginosa 65.36-3 tracheal isolates from mechanically ventilated tuberculosis patient
Pseudomonas aeruginosa [47] = assay: Antimicrobial activity against Pseudomonas aeruginosa 65.36-4 tracheal isolates from mechanically ventilated tuberculosis patient
Pseudomonas aeruginosa [48] = assay: Antimicrobial activity against Pseudomonas aeruginosa 65.38-1 tracheal isolates from mechanically ventilated tuberculosis patient

Question: GENTAMICIN was tested. Which Activity (Pseudomonas aeruginosa [1]) did it give?
Answer: Its Activity is “inactive”.

Question: And the Activity (Pseudomonas aeruginosa [2])?
Answer: Its Activity is “inactive”.

Question: What about the Activity (Pseudomonas aeruginosa [3]) of the same sequence?
Answer: Its Activity is “Active”.

Question: And the Activity (Pseudomonas aeruginosa [4])?
Answer: The Activity was “Active”.

Question: What about the Activity (Pseudomonas aeruginosa [5]) of the same sequence?
Answer: The Activity was “inactive”.

Question: What about the Activity (Pseudomonas aeruginosa [6]) of the same sequence?
Answer: The Activity was “Active”.

Question: What about the Activity (Pseudomonas aeruginosa [7]) of the same sequence?
Answer: The Activity was “inactive”.

Question: And the Activity (Pseudomonas aeruginosa [8])?
Answer: The Activity was “inactive”.

Question: What about the Activity (Pseudomonas aeruginosa [9]) of the same sequence?
Answer: The Activity was “inactive”.

Question: And the Activity (Pseudomonas aeruginosa [10])?
Answer: The Activity was “inactive”.

Question: And the Activity (Pseudomonas aeruginosa [11])?
Answer: The Activity was “inactive”.

Question: And the Activity (Pseudomonas aeruginosa [12])?
Answer: The Activity was “inactive”.

Question: And the Activity (Pseudomonas aeruginosa [13])?
Answer: Its Activity is “Active”.

Question: And the Activity (Pseudomonas aeruginosa [14])?
Answer: Its Activity is “Active”.

Question: And the Activity (Pseudomonas aeruginosa [15])?
Answer: The Activity was “Active”.

Question: What about the Activity (Pseudomonas aeruginosa [16]) of the same sequence?
Answer: The Activity was “Active”.

Question: What about the Activity (Pseudomonas aeruginosa [17]) of the same sequence?
Answer: Its Activity is “Active”.

Question: And the Activity (Pseudomonas aeruginosa [18])?
Answer: The Activity was “Active”.

Question: And the Activity (Pseudomonas aeruginosa [19])?
Answer: The Activity was “Active”.

Question: What about the Activity (Pseudomonas aeruginosa [20]) of the same sequence?
Answer: Its Activity is “Active”.

Question: And the Activity (Pseudomonas aeruginosa [21])?
Answer: Its Activity is “Active”.

Question: And the Activity (Pseudomonas aeruginosa [22])?
Answer: Its Activity is “Active”.

Question: What about the Activity (Pseudomonas aeruginosa [23]) of the same sequence?
Answer: Its Activity is “Active”.

Question: And the Activity (Pseudomonas aeruginosa [24])?
Answer: The Activity was “Active”.

Question: And the Activity (Pseudomonas aeruginosa [25])?
Answer: Its Activity is “Active”.

Question: And the Activity (Pseudomonas aeruginosa [26])?
Answer: The Activity was “Active”.

Question: And the Activity (Pseudomonas aeruginosa [27])?
Answer: Its Activity is “Active”.

Question: What about the Activity (Pseudomonas aeruginosa [28]) of the same sequence?
Answer: The Activity was “Active”.

Question: What about the Activity (Pseudomonas aeruginosa [29]) of the same sequence?
Answer: The Activity was “Active”.

Question: What about the Activity (Pseudomonas aeruginosa [30]) of the same sequence?
Answer: Its Activity is “Active”.

Question: And the Activity (Pseudomonas aeruginosa [31])?
Answer: Its Activity is “Active”.

Question: And the Activity (Pseudomonas aeruginosa [32])?
Answer: Its Activity is “Active”.

Question: And the Activity (Pseudomonas aeruginosa [33])?
Answer: The Activity was “Active”.

Question: What about the Activity (Pseudomonas aeruginosa [34]) of the same sequence?
Answer: The Activity was “Active”.

Question: What about the Activity (Pseudomonas aeruginosa [35]) of the same sequence?
Answer: The Activity was “Active”.

Question: What about the Activity (Pseudomonas aeruginosa [36]) of the same sequence?
Answer: Its Activity is “Active”.

Question: What about the Activity (Pseudomonas aeruginosa [37]) of the same sequence?
Answer: Its Activity is “Active”.

Question: And the Activity (Pseudomonas aeruginosa [38])?
Answer: Its Activity is “Active”.

Question: What about the Activity (Pseudomonas aeruginosa [39]) of the same sequence?
Answer: Its Activity is “Active”.

Question: And the Activity (Pseudomonas aeruginosa [40])?
Answer: Its Activity is “Active”.

Question: And the Activity (Pseudomonas aeruginosa [41])?
Answer: Its Activity is “Active”.

Question: What about the Activity (Pseudomonas aeruginosa [42]) of the same sequence?
Answer: Its Activity is “Active”.

Question: And the Activity (Pseudomonas aeruginosa [43])?
Answer: The Activity was “Active”.

Question: What about the Activity (Pseudomonas aeruginosa [44]) of the same sequence?
Answer: Its Activity is “Active”.

Question: What about the Activity (Pseudomonas aeruginosa [45]) of the same sequence?
Answer: Its Activity is “inactive”.

Question: And the Activity (Pseudomonas aeruginosa [46])?
Answer: The Activity was “inactive”.

Question: And the Activity (Pseudomonas aeruginosa [47])?
Answer: Its Activity is “inactive”.

Question: And the Activity (Pseudomonas aeruginosa [48])?
Answer: Its Activity is “inactive”.
